target: β2 adrenergic receptor (Homo sapiens (Human), UniProt P07550); assay: cAMP Gs dynamic HTRF assay, β2 expressing CHO cells; assay type: cell-based; conditions: B2-AR; CHO-K1 (HitHunter); read-out: Average pEC50 [Receptor subtype: B2-AR; Cell type: CHO-K1 (HitHunter)] (converted)
Protocol: (§1) cAMP homogeneous time-resolved fluorescence (HTRF). Compound efficacy was determined using the cAMP Gs dynamic HTRF assay (Cisbio, catalog #62AM4PEC) largely following the manufacturer's instructions, also detailed below.
(§2) Compound preparation. […] Standard serial dilution curves were 10-point, 5-fold dilutions starting from a highest concentration of 10 μM. […] Assay plates were centrifuged at 500×g for 10 seconds. Compounds and IBMX were prepared at 2× final dose to compensate for addition of cells.
(§3) Cell preparation. 1× stimulation buffer, washing PBS (Dulbecco's phosphate-buffered saline, −Mg −Ca; Caisson Labs, catalog #PBL01), assay PBS (Dulbecco's phosphate-buffered saline, +Mg, +Ca; Caisson Labs, catalog #PBL02) and Versene (0.02% EDTA disodium salt solution in PBS without calcium or magnesium; Caisson Labs, catalog #EDL01) were pre-warmed to 37° C. Cells expressing beta-adrenergic receptor were washed in washing PBS to remove growth medium and then released from the surface by incubating with Versene for 5-10 minutes at 37° C. Cells were harvested using assay PBS, counted manually by hemocytometer or by an automated cell counter, pelleted by centrifugation (200×g, 5 minutes) and resuspended in 37° C. 1× stimulation buffer to a final density of 1.5×10^6 cells/mL. 5 μL of the suspended cell solution (7500 cell total) were added to all wells of the 384 well assay plate, the assay plate was covered with an Axygen® plate seal (Corning PCR-SP) and incubated in a humidified 37° C. environment supplemented with 5% CO2 for 30 minutes.
(§4) HTRF reagent addition, reading and data analysis. After 30 minutes of cell stimulation with test compound, the assay plates were centrifuged at 500×g for 10 seconds, and incubation was stopped with the addition of 5 μL cAMP-D2 acceptor, diluted 1:21 in detection and lysis buffer 2 (Cisbio 62CL2FDF) was added to all cells. Subsequently, 5 μL Anti-cAMP-Eu Donor, diluted 1:21 in detection and lysis buffer 2, was added to cells. Plates were sealed and reactions gently ‘vortexed’ at 900 rpm on a Heidolph Titramax 1000 for at least 30 minutes at room temperature. Plates were centrifuged again at 500×g for 10 seconds, and HTRF was measured using a Tecan Spark plate reader at 50 flashes per well. […] Potency estimates (EC50) were derived from the four-parameter nonlinear regression of the concentration-effect curve and an estimate of relative efficacy was determined by comparing the magnitude of the test compound HTRF signal window (min−max dose) with the signal window of the full agonist control, isoproterenol.

Chain of β2 adrenergic receptor (P07550 whole entry, species assumed): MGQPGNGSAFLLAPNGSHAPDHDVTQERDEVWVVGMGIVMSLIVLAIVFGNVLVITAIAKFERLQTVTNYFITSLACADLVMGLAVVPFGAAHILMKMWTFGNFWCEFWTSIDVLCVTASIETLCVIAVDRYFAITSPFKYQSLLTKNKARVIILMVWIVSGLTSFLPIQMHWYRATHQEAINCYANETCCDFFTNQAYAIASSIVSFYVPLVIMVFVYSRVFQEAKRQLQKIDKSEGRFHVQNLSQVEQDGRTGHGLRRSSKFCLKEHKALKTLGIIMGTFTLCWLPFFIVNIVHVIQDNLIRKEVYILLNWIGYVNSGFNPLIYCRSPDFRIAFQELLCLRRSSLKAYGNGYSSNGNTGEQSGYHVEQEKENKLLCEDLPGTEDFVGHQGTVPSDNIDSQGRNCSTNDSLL

| Compound | EC50 |
| --- | --- |
| [2H]C([2H])([2H])C(NCC(O)c1cccnc1C)(C([2H])([2H])[2H])C([2H])([2H])[2H] (stereo not shown) [Compound 03-278] | < 0.01 µM |
| Cn1ccc(-c2cccc([C@@H](O)CNC(C)(C)C)n2)n1 [Compound 03-216] | 0.01 to 0.1 µM |
| CNc1ccc([C@@H](O)CNC(C)(C)C)c(C)n1 [Compound 03-276] | 0.01 to 0.1 µM |
| CC(C)(C)NC[C@H](O)c1cccc(-n2cccn2)n1 [Compound 03-214] | < 0.01 µM |
| CC(C)(C)NC[C@H](O)c1cccc(-c2ccncc2)n1 [Compound 03-221] | < 0.01 µM |
| CC(C)(C)NC[C@H](O)c1ccc(C#N)c(C(F)(F)F)n1 [Compound 03-30] | 0.01 to 0.1 µM |
| CC(C)(C)NC[C@H](O)c1cccc(-c2cnn[nH]2)n1 [Compound 03-200] | < 0.01 µM |
| COc1ccc(C[C@@H](C)NC[C@H](O)c2cc(Cl)cnc2C)cc1 [Compound 03-271] | 0.01 to 0.1 µM |
| CN(C)c1cccc([C@H](O)CNC(C)(C)C)n1 [Compound 03-154] | > 1 µM |
| CC(C)(C)NC[C@@H](O)c1cccc(-c2ccc[nH]2)n1 [Compound 03-244] | 0.01 to 0.1 µM |
| Cc1ccccc1-c1cccc([C@@H](O)CNC(C)(C)C)n1 [Compound 03-149] | < 0.01 µM |
| CC(C)c1cccc([C@H](O)CNC(C)(C)C)n1 [Compound 03-176] | 0.1 to 1 µM |
| CC1(NC[C@H](O)c2cccc(C(F)(F)F)n2)CCOCC1 [Compound 03-23] | 0.1 to 1 µM |
| CC(C)c1ncccc1[C@@H](O)CNC(C)(C)C [Compound 03-51] | > 1 µM |
| CC(C)(C)NCC(O)c1cccnc1Cl (stereo not shown) [Compound 03-114] | 0.01 to 0.1 µM |
| CC(C)(C)NC[C@H](O)c1cccc(C2CCCC2)n1 [Compound 03-198] | 0.01 to 0.1 µM |
| CC(C)(C)NC[C@@H](O)c1cccc(NC2CCC2)n1 [Compound 03-229] | > 1 µM |
| CC(C)(C)NC[C@H](O)c1cccc(NCC(F)(F)F)n1 [Compound 03-266] | < 0.01 µM |
| Cc1cnccc1[C@@H](O)CNC(C)(C)C [Compound 03-247, (R)-2-(tert-butylamino)-1-(3-methylpyridin-4-yl)ethan-1-ol] | > 1 µM |
| CC(C)(C)NC[C@@H](O)c1ccc(C(F)(F)F)cn1 [Compound 03-125] | 0.1 to 1 µM |
| CC(C)(C)NC[C@H](O)c1cccc(C2=N[C@H](C(=O)O)CS2)n1 [Compound 03-246] | > 1 µM |
| Cc1ccc(-c2cccc([C@@H](O)CNC(C)(C)C)n2)cc1 [Compound 03-143] | 0.1 to 1 µM |
| CC(C)(C)NC[C@H](O)c1cccc(C2(C#N)CC2)n1 [Compound 03-206] | < 0.01 µM |
| CC(C)(C)NC[C@H](O)c1cccc(Br)n1 [Compound 03-32] | 0.01 to 0.1 µM |

same assay, conditions: B2-AR; CHO-K cells; read-out: Average EC50 [Receptor subtype: B2-AR; Cell type: CHO-K]

| Compound | EC50 |
| --- | --- |
| CC(C)(C)NC[C@H](O)c1ccc(C#N)c(C(F)(F)F)n1 [Compound 03-30] | 0.01 to 0.1 µM |
| CN(C)c1cccc([C@H](O)CNC(C)(C)C)n1 [Compound 03-154] | > 1 µM |
| Cc1ccccc1-c1cccc([C@@H](O)CNC(C)(C)C)n1 [Compound 03-149] | < 0.01 µM |
| CC(C)c1cccc([C@H](O)CNC(C)(C)C)n1 [Compound 03-176] | 0.1 to 1 µM |
| CC1(NC[C@H](O)c2cccc(C(F)(F)F)n2)CCOCC1 [Compound 03-23] | 0.1 to 1 µM |
| CC(C)c1ncccc1[C@@H](O)CNC(C)(C)C [Compound 03-51] | > 1 µM |
| CC(C)(C)NCC(O)c1cccnc1Cl (stereo not shown) [Compound 03-114] | 0.01 to 0.1 µM |
| CC(C)(C)NC[C@@H](O)c1ccc(C(F)(F)F)cn1 [Compound 03-125] | 0.1 to 1 µM |
| CC(C)(C)NC[C@H](O)c1cccc(Br)n1 [Compound 03-32] | 0.01 to 0.1 µM |

target: β1-adrenergic receptor (Homo sapiens (Human), UniProt P08588); assay: cAMP Gs dynamic HTRF assay, β1 expressing CHO cells; assay type: cell-based; conditions: B1-AR; CHO-K1 (HitHunter)
Protocol: as §1, §2, §3, §4

Chain of β1-adrenergic receptor (P08588 whole entry, species assumed): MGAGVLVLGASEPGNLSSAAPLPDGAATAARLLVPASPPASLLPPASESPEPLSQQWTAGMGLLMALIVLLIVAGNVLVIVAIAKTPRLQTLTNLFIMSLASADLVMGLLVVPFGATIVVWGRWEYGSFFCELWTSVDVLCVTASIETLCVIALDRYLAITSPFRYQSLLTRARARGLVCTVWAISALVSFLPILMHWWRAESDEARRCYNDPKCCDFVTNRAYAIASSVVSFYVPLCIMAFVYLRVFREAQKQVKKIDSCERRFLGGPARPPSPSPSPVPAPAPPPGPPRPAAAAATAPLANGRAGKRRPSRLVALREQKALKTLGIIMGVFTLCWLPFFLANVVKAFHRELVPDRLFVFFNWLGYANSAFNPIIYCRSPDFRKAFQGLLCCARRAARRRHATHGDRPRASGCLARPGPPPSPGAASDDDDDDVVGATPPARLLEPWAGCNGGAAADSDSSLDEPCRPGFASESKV

| Compound | Average pEC50 [Receptor subtype: B1-AR; Cell type: CHO-K1 (HitHunter)] |
| --- | --- |
| CC(C)c1ncccc1[C@@H](O)CNC(C)(C)C [Compound 03-51] | D (D < 6) |

same assay, conditions: B1-AR; CHO-K1 (HitHunter); read-out: Average pEC50 [Receptor subtype: B1-AR; Cell type: CHO-K1 (HitHunter)] (converted)

| Compound | EC50 |
| --- | --- |
| [2H]C([2H])([2H])C(NCC(O)c1cccnc1C)(C([2H])([2H])[2H])C([2H])([2H])[2H] (stereo not shown) [Compound 03-278] | 0.1 to 1 µM |
| Cn1ccc(-c2cccc([C@@H](O)CNC(C)(C)C)n2)n1 [Compound 03-216] | > 1 µM |
| CNc1ccc([C@@H](O)CNC(C)(C)C)c(C)n1 [Compound 03-276] | 0.1 to 1 µM |
| CC(C)(C)NC[C@H](O)c1cccc(-n2cccn2)n1 [Compound 03-214] | 0.1 to 1 µM |
| CC(C)(C)NC[C@H](O)c1cccc(-c2ccncc2)n1 [Compound 03-221] | 0.01 to 0.1 µM |
| CC(C)(C)NC[C@H](O)c1ccc(C#N)c(C(F)(F)F)n1 [Compound 03-30] | 0.1 to 1 µM |
| CC(C)(C)NC[C@H](O)c1cccc(-c2cnn[nH]2)n1 [Compound 03-200] | 0.01 to 0.1 µM |
| COc1ccc(C[C@@H](C)NC[C@H](O)c2cc(Cl)cnc2C)cc1 [Compound 03-271] | 0.1 to 1 µM |
| CN(C)c1cccc([C@H](O)CNC(C)(C)C)n1 [Compound 03-154] | > 1 µM |
| CC(C)(C)NC[C@@H](O)c1cccc(-c2ccc[nH]2)n1 [Compound 03-244] | 0.1 to 1 µM |
| Cc1ccccc1-c1cccc([C@@H](O)CNC(C)(C)C)n1 [Compound 03-149] | 0.1 to 1 µM |
| CC(C)c1cccc([C@H](O)CNC(C)(C)C)n1 [Compound 03-176] | > 1 µM |
| CC1(NC[C@H](O)c2cccc(C(F)(F)F)n2)CCOCC1 [Compound 03-23] | 0.1 to 1 µM |
| CC(C)(C)NCC(O)c1cccnc1Cl (stereo not shown) [Compound 03-114] | 0.1 to 1 µM |
| CC(C)(C)NC[C@H](O)c1cccc(C2CCCC2)n1 [Compound 03-198] | > 1 µM |
| CC(C)(C)NC[C@@H](O)c1cccc(NC2CCC2)n1 [Compound 03-229] | > 1 µM |
| CC(C)(C)NC[C@H](O)c1cccc(NCC(F)(F)F)n1 [Compound 03-266] | < 0.01 µM |
| Cc1cnccc1[C@@H](O)CNC(C)(C)C [Compound 03-247, (R)-2-(tert-butylamino)-1-(3-methylpyridin-4-yl)ethan-1-ol] | > 1 µM |
| CC(C)(C)NC[C@@H](O)c1ccc(C(F)(F)F)cn1 [Compound 03-125] | 0.1 to 1 µM |
| CC(C)(C)NC[C@H](O)c1cccc(C2=N[C@H](C(=O)O)CS2)n1 [Compound 03-246] | > 1 µM |
| Cc1ccc(-c2cccc([C@@H](O)CNC(C)(C)C)n2)cc1 [Compound 03-143] | > 1 µM |
| CC(C)(C)NC[C@H](O)c1cccc(C2(C#N)CC2)n1 [Compound 03-206] | < 0.01 µM |
| CC(C)(C)NC[C@H](O)c1cccc(Br)n1 [Compound 03-32] | < 0.01 µM |

same assay, conditions: B1-AR; CHO-K cells; read-out: Average EC50 [Receptor subtype: B1-AR; Cell type: CHO-K]

| Compound | EC50 |
| --- | --- |
| CC(C)(C)NC[C@H](O)c1ccc(C#N)c(C(F)(F)F)n1 [Compound 03-30] | 0.1 to 1 µM |
| CN(C)c1cccc([C@H](O)CNC(C)(C)C)n1 [Compound 03-154] | > 1 µM |
| Cc1ccccc1-c1cccc([C@@H](O)CNC(C)(C)C)n1 [Compound 03-149] | 0.1 to 1 µM |
| CC(C)c1cccc([C@H](O)CNC(C)(C)C)n1 [Compound 03-176] | > 1 µM |
| CC1(NC[C@H](O)c2cccc(C(F)(F)F)n2)CCOCC1 [Compound 03-23] | 0.1 to 1 µM |
| CC(C)c1ncccc1[C@@H](O)CNC(C)(C)C [Compound 03-51] | > 1 µM |
| CC(C)(C)NCC(O)c1cccnc1Cl (stereo not shown) [Compound 03-114] | 0.1 to 1 µM |
| CC(C)(C)NC[C@@H](O)c1ccc(C(F)(F)F)cn1 [Compound 03-125] | 0.1 to 1 µM |
| Cc1ccc(-c2cccc([C@@H](O)CNC(C)(C)C)n2)cc1 [Compound 03-143] | > 1 µM |
| CC(C)(C)NC[C@H](O)c1cccc(Br)n1 [Compound 03-32] | < 0.01 µM |
